# Measurements from publication PMC9583092 (ACS Omega, 2022).
# Several values for one entry are separate records, joined by “and”; a condition that tells them apart may be missing. Identical values can stand only once. Like-named read-outs stand apart in the source and are kept apart here. Non-standard residues stand in square brackets, D forms with d. Residues, ends and D or L forms follow the SMILES beside them. *: point of attachment. Gly(N(CH2)2(3-indolyl)) = O=C(O)CNCCc1c[nH]c2ccccc12; Gly(Nα-4-Cl-benzyl) = O=C(O)CNCc1ccc(Cl)cc1; N(4-Br-benzyl)Gly = O=C(O)CNCc1ccc(Br)cc1; N(tridecyl)Gly = CCCCCCCCCCCCCNCC(=O)O; N(4-F-Bzl)Gly = O=C(O)CNCc1ccc(F)cc1; NBzl(4-I)Gly = O=C(O)CNCc1ccc(I)cc1; Gly(N-2-aminoethyl) = NCCNCC(=O)O; NFurfurylGly = O=C(O)CNCc1ccco1; X1 = CCCCCCCCN(CCCCCCCC)CC(=O)*; Gly(N-cHex) = O=C(O)CNC1CCCCC1; X2 = CCCCCCN(CCCCCC)CC(=O)*; Nphe = O=C(O)CNCc1ccccc1; Nlys = NCCCCNCC(=O)O
# Assays:
# C. neoformans [1] = experiment: MIC determination, broth microdilution; assay type: cell-based, Cryptococcus neoformans; details: RPMI-MOPS, 72 h at 35 °C, no visual growth, twofold dilutions 200–1.56 μg/mL, biological triplicate
# C. neoformans [2] = details: RMG8-8 parameters from previously published results; cited from earlier work
# [3] = result in words; cited from earlier work
# C. albicans = details: cited from earlier work
# [4] = test system: HepG2 hepatocellular carcinoma cells; details: human liver cells; RMG8-8 parameters from previously published results; cited from earlier work
# fungi = details: killed fungi rapidly; cited from earlier work
# [5] = calculated distribution coefficient at pH 7.4; RMG8-8 parameters from previously published results; cited from earlier work
Structure (SMILES),C. neoformans MIC (C. neoformans [1]) [µg/mL],other results
CCCCCCCCCCCCCNCC(=O)N(CC(=O)N(CCCCN)CC(=O)N(CCN)CC(=O)N(CC(N)=O)Cc1ccc(Cl)cc1)Cc1ccc(Cl)cc1 [Compound 18] (H-[N(tridecyl)Gly][Gly(Nα-4-Cl-benzyl)][Nlys][Gly(N-2-aminoethyl)][Gly(Nα-4-Cl-benzyl)]-NH2),3.13,–
CCCCCCCCCCCCCNCC(=O)N(CC(=O)N(CCCCN)CC(=O)N(CCN)CC(=O)N(CC(N)=O)C1CCCCC1)C1CCCCC1 [RMG8-8] (H-[N(tridecyl)Gly][Gly(N-cHex)][Nlys][Gly(N-2-aminoethyl)][Gly(N-cHex)]-NH2),–,C. neoformans MIC (C. neoformans [2]): 1.56 µg/mL; proteolytic stability [3]: proteolytically stable; C. albicans MIC (C. albicans): 25 µg/mL; HepG2 TD50 [4]: 189 µg/mL and 189 ± 43 µg/mL; t1/2 of fungal killing (fungi): 6.5 min; cLogD7.4 [5]: –2.38
CCCCCCCCN(CCCCCCCC)CC(=O)N(CC(=O)N(CCCCN)CC(=O)N(CCN)CC(=O)N(CC(N)=O)C1CCCCC1)C1CCCCC1 [Compound 7] (X1-[Gly(N-cHex)][Nlys][Gly(N-2-aminoethyl)][Gly(N-cHex)]-NH2),6.25,–
CCCCCCN(CCCCCC)CC(=O)N(CC(=O)N(CCCCN)CC(=O)N(CCN)CC(=O)N(CC(N)=O)C1CCCCC1)C1CCCCC1 [Compound 6] (X2-[Gly(N-cHex)][Nlys][Gly(N-2-aminoethyl)][Gly(N-cHex)]-NH2),100,–
CCCCCCCCCCCCCNCC(=O)N(CC(=O)N(CCCCN)CC(=O)N(CCN)CC(=O)N(CC(N)=O)Cc1ccc(F)cc1)Cc1ccc(F)cc1 [Compound 17] (H-[N(tridecyl)Gly][N(4-F-Bzl)Gly][Nlys][Gly(N-2-aminoethyl)][N(4-F-Bzl)Gly]-NH2),1.56 to 3.13,–
CCCCCCCCCCCCCNCC(=O)N(CC(=O)N(CCCCN)CC(=O)N(CCN)CC(=O)N(CC(N)=O)Cc1ccccc1)Cc1ccccc1 [Compound 15] (H-[N(tridecyl)Gly][Nphe][Nlys][Gly(N-2-aminoethyl)][Nphe]-NH2),1.56 to 3.13,–
CCCCCCCCCCCCCNCC(=O)N(CC(=O)N(CCCCN)CC(=O)N(CCN)CC(=O)N(CC(N)=O)Cc1ccc(I)cc1)Cc1ccc(I)cc1 [Compound 20] (H-[N(tridecyl)Gly][NBzl(4-I)Gly][Nlys][Gly(N-2-aminoethyl)][NBzl(4-I)Gly]-NH2),6.25,–
CCCCCCCCCCCCCNCC(=O)N(CC(=O)N(CCCCN)CC(=O)N(CCCCN)CC(=O)N(CC(N)=O)C1CCCCC1)C1CCCCC1 [Compound 2] (H-[N(tridecyl)Gly][Gly(N-cHex)][Nlys][Nlys][Gly(N-cHex)]-NH2),3.13,–
CCCCCCCCCCCCCNCC(=O)N(CC(=O)N(CCCCN)CC(=O)N(CCN)CC(=O)N(CC(N)=O)Cc1ccc(Br)cc1)Cc1ccc(Br)cc1 [Compound 19] (H-[N(tridecyl)Gly][N(4-Br-benzyl)Gly][Nlys][Gly(N-2-aminoethyl)][N(4-Br-benzyl)Gly]-NH2),3.13,–
CCCCCCCCCCCCCNCC(=O)N(CC(=O)N(CCCC[N+](C)(C)C)CC(=O)N(CC[N+](C)(C)C)CC(=O)N(CC(N)=O)C1CCCCC1)C1CCCCC1 [Compound 1],12.5,–
CCCCCCCCCCCCCNCC(=O)N(CC(=O)N(CCCCN)CC(=O)N(CCN)CC(=O)N(CC(N)=O)Cc1ccco1)Cc1ccco1 [Compound 24] (H-[N(tridecyl)Gly][NFurfurylGly][Nlys][Gly(N-2-aminoethyl)][NFurfurylGly]-NH2),3.13 to 6.25,–
CCCCCCCCCCCCCNCC(=O)N(CCc1c[nH]c2ccccc12)CC(=O)N(CCCCN)CC(=O)N(CCN)CC(=O)N(CCc1c[nH]c2ccccc12)CC(N)=O [Compound 23] (H-[N(tridecyl)Gly][Gly(N(CH2)2(3-indolyl))][Nlys][Gly(N-2-aminoethyl)][Gly(N(CH2)2(3-indolyl))]-NH2),1.56 to 3.13,–
